Laboratory results: patent US20240075050A1, “Methods and Compositions for Treating Leucine Rich Repeat Kinase 2 (LRRK2)-Associated Disorder or Condition” (University of Connecticut, priority 2022, published 2024)

Columns and labels:
Format in all cases: cell-based, human
LRRK2 = assay: Overexpressed LRRK2 levels in HEK 293T cells, Western blot
Procedure: FIGS. 2A-2T depicts that AICAr, the precursor of ATIC substrate, regulates LRRK2 expression levels and neuronal toxicity. FIGS. 2A and 2B depict the overexpressed LRRK2 levels in HEK 293T cells upon AICAr treatment. HEK293 cells were transfected with MYC-LRRK2 and treated with or without 1 mM AICAr for 48 hours. LRRK2 levels were analyzed by Western blot. FIGS. 2C and 2D depict the LRRK2 expression levels in SH-SY5Y cells upon AICAr treatment. Human neuroblastoma SH-SY5Y cells were treated with or without 1 mM AICAr for 48 hours. LRRK2 expression levels were analyzed by Western blot. FIGS. 2E and 2F depict the overexpressed (3-glucocerebrosidase (GCase) levels upon AICAr treatment. HEK 293T cells were transfected with V5-GCase and treated with or without 1 mM AICAr for 48 hours. GCase levels were analyzed by Western blot. FIGS. 2G-2N depict the LRRK2 expression levels in primary neurons (FIG. 2G and FIG. 2H), microglia (FIG. 2I and FIG. 2J), astrocytes (FIG. 2K and FIG. 2L) and human fibroblasts (FIG. 2M and FIG. 2N) upon AICAr treatment. Mouse primary cortical neurons, microglia, astrocytes or human fibroblasts from a health control were treated with or without 1 mM AICAr for 48 hours. LRRK2 expression levels were analyzed by Western blot. FIGS. 2O and 2P depict the overexpressed LRRK2 WT and pathogenic mutant levels upon AICAr treatment. HEK 293T cells were transfected with MYC-LRRK2 WT, R1441C (RC), R1441G (RG), Y1699C (YC), G2019S (GS) or I2020T (IT) and treated with or without 1 mM AICAr for 48 hours. LRRK2 expression levels were analyzed by Western blot. FIGS. 2Q and 2R depict the LRRK2 expression levels in mouse striatum upon AICAr treatment. AICAr (72 μg/day/animal) or saline (used as a control) was injected into mouse striatum via osmotic pumps. One day after injection, striatal tissues near the injection sites were collected and LRRK2 expression levels were analyzed by Western blot. Images were quantified by ImageJ software. Data are mean±SEM from total six mice (three male mice and three female mice). ****p<0.0001 by Student's t tests. […] FIG. 2T depicts the quantification of neuronal viability. Bars indicate the viability (n>100) for each transfection condition expressed as a percent of control neurons (eGFP with pcDNA3.1 empty vector). Data represent the mean±SEM from three independent experiments with n>100 cells quantified in each experiment. *p<0.05, ***p<0.001, ****p<0.0001 by one-way ANOVA followed by a Tukey's post hoc test.
FIGS. 3A-3J depict that AICAr regulates LRRK2 at mRNA level and through a specific region. […] LRRK2 expression levels were analyzed by Western blot. Images were quantified by ImageJ software. […] LRRK2 and GBA mRNA levels were analyzed by real-time PCR. […] LRRK2 mRNA levels were analyzed by real-time PCR. […]

[1] = system: GBA, α-Synuclein, VPS35, Parkin, PINK, and DJ-1; assay: Protein levels of other PD-associated proteins in HEK 293T cells, Western blot; settings: tagged proteins, 1 mM, 48 hours
Procedure: FIGS. 2A-2T depicts that AICAr, the precursor of ATIC substrate, regulates LRRK2 expression levels and neuronal toxicity. FIGS. 2A and 2B depict the overexpressed LRRK2 levels in HEK 293T cells upon AICAr treatment. HEK293 cells were transfected with MYC-LRRK2 and treated with or without 1 mM AICAr for 48 hours. LRRK2 levels were analyzed by Western blot. FIGS. 2C and 2D depict the LRRK2 expression levels in SH-SY5Y cells upon AICAr treatment. Human neuroblastoma SH-SY5Y cells were treated with or without 1 mM AICAr for 48 hours. LRRK2 expression levels were analyzed by Western blot. FIGS. 2E and 2F depict the overexpressed (3-glucocerebrosidase (GCase) levels upon AICAr treatment. HEK 293T cells were transfected with V5-GCase and treated with or without 1 mM AICAr for 48 hours. GCase levels were analyzed by Western blot. FIGS. 2G-2N depict the LRRK2 expression levels in primary neurons (FIG. 2G and FIG. 2H), microglia (FIG. 2I and FIG. 2J), astrocytes (FIG. 2K and FIG. 2L) and human fibroblasts (FIG. 2M and FIG. 2N) upon AICAr treatment. Mouse primary cortical neurons, microglia, astrocytes or human fibroblasts from a health control were treated with or without 1 mM AICAr for 48 hours. LRRK2 expression levels were analyzed by Western blot. […] LRRK2 expression levels were analyzed by Western blot. […] Images were quantified by ImageJ software. […]

GBA mRNA = GBA mRNA levels by real-time PCR in SH-SY5Y cells; settings: 2 mM, 24 hours
Procedure: Real-Time PCR (qPCR). SH-SY5Y WT or AUF1-KO cells were treated with or without 2 mM AICAr for 24 hours, and total RNA was extracted from 3×10^5 cells of each treatment using TRIzol™ Reagent (Invitrogen) as per the manufacturer's introductions. Real-Time PCR (qPCR) assay was performed using GoTaq® 2-Step RT-PCR System (Promega) as per the manufacturer's introductions. Briefly, total cDNA was reversely transcribed from RNA pools (1.5 μg RNA in a 10 μl reaction mixture) using random primers. The qPCR reaction was run in CFX96 qPCR detection system (Bio-Rad) with 3 μl cDNA (1:20 dilution) in a 10 μl reaction mixture (Table 3), and set at 95° C. for 2 minutes followed by 40 amplification cycles of 95° C. for 15 seconds, 60° C. for 1 min with a melting curve, 95° C. for 15 seconds, 60° C. for 1 min, a ramp from 60° C. to 95° C. at an 1% rate, and 95° C. for 15 seconds. Melt curves were monitored to assess qPCR amplicons, and critical threshold (Ct) values were collected with an enclosed software. Relative gene expression was analyzed by normalization against Ct values of f-ACTIN (housekeeping gene) and then determined by comparison with expression levels of control sample using the relative expression index (2-ΔΔCt) method.

In the case of `NC(=O)c1ncn([C@@H]2O[C@H](CO)[C@@H](O)[C@H]2O)c1N` [AICAr, 5-aminoimidazole-4-carboxamide riboside], the “native LRRK2 cDNA expression” value (LRRK2; HEK 293T, Flag-LRRK2 native cDNA, 1 mM, 48 hours) was “great suppress”, the “expression of synthesized LRRK2 cDNA with synonymous codons” value (LRRK2; HEK 293T, Flag-LRRK2 synthesized cDNA, 1 mM, 48 hours) was “no obvious effects” and the “overexpressed LRRK2 levels” value (LRRK2; HEK293 cells transfected with MYC-LRRK2, 1 mM, 48 hours) was “decreased”. The “chimeric LRRK2 cDNA expression” value (LRRK2; synthesized cDNA with region 2221-3927 bp replaced by native sequence) was “great suppression”, the “levels of other PD-associated proteins (GBA, α-Synuclein, VPS35, Parkin, PINK, DJ-1)” value [1] was “no changes” and the “GBA mRNA levels” value (GBA mRNA) was “no changes”.
